Data: paper PMC9325707, “Vav2 is a novel APP-interacting protein that regulates APP protein level” (Scientific Reports, 2022)
Each block holds one molecule with its values, some of them ahead of it. Non-standard residues stand in square brackets, D forms with d. Residues, ends and D or L forms follow the SMILES beside them. pY = N[C@@H](Cc1ccc(OP(=O)(O)O)cc1)C(=O)O

Legend:
Vav2-SH2 domain [1] = molecular target: T1, Vav2-SH2 domain (Homo sapiens, UniProt P52735); test: ITC binding of APP peptides to Vav2-SH2; conditions: 298 K, 10 mM Tris/HCl, 100 mM NaCl
T1 construct: the DNA fragment encoding the SH2 domain of Vav2 (residues 659–771) was cloned into a pET28a (+) (Novagen) plasmid; 6xHis (N, cleaved yes); made in house; host or cells: Escherichia coli BL21 (DE3)
T1 sequence (P52735 659-771): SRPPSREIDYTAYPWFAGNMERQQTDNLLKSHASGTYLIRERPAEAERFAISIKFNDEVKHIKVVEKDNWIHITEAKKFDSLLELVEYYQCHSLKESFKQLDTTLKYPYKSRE
Excerpt: For NMR and ITC experiments, the DNA fragment encoding the SH2 domain of Vav2 (residues 659–771) was cloned into a pET28a (+) (Novagen) plasmid as described previously, generating a fusion protein with an N-terminus 6 × His tag. For GST pull-down experiments, the Vav2-SH2 was subcloned into pGEX4T-1 vector. The APP expression plasmid pAPPsw and the Vav2 expression plasmid pCMV5-myc-Vav2 were constructed as previously described[55],[66]. Mutants were generated by PCR mediated site-directed mutagenesis. All the constructs were verified by DNA sequencing.
The recombinant plasmids harboring His-tagged or GST-tagged Vav2-SH2 were transformed into Escherichia coli BL21 (DE3) (Novagen) strain. Cells were grown at 37 °C up to an A600 nm of 0.8, and then were induced with 0.5 mM IPTG at 25 °C for 8 h. […] Protein concentrations were estimated with absorbance spectroscopy using the molar absorption coefficient. […]
ITC experiments were performed at 298 K on a PEAQ-ITC titration calorimeter (MicroCal, Northampton, MA). […] ITC data were analyzed with a single-site binding model using Microcal PEAQ-ITC software.

[2] = molecular target: APP pY682 peptide (Homo sapiens) (UniProt P05067); conditions: cited from earlier work
Chain of APP pY682 peptide (Homo sapiens) (P05067 whole entry, looked up, the tested form may be a part): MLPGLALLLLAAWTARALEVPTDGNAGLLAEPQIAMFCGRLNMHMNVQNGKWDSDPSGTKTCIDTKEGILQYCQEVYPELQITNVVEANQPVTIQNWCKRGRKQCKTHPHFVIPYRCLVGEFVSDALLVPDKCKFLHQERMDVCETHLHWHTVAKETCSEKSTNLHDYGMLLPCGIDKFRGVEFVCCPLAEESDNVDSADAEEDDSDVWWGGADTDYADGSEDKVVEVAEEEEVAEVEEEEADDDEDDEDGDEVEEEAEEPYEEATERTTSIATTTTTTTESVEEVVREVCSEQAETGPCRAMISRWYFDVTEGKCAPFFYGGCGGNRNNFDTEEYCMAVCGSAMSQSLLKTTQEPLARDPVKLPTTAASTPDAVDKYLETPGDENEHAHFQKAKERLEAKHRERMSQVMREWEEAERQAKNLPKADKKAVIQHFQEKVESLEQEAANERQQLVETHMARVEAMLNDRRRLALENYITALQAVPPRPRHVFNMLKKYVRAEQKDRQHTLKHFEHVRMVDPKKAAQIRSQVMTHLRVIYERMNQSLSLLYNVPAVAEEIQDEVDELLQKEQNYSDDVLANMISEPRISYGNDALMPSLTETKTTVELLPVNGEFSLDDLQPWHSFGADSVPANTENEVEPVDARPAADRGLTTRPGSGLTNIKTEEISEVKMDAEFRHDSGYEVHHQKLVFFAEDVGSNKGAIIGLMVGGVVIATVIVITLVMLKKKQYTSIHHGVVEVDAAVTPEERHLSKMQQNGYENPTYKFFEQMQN

Vav2-SH2 domain [3] = molecular target: T1, Vav2-SH2 domain; test: NMR titration (2D 1H-15N HSQC) of 15N-labeled Vav2-SH2 with APP peptides; format: binding; conditions: 0.1 mM 15N-Vav2-SH2, 20 mM Tris/HCl, 100 mM NaCl, 3 mM DTT, 90% H2O/10% D2O, pH 7.0, 293 K, 600 MHz; protein:peptide up to 1:3 (APP-pY682) or 1:4 (APP-Y682)
Protocol: The recombinant plasmids harboring His-tagged or GST-tagged Vav2-SH2 were transformed into Escherichia coli BL21 (DE3) (Novagen) strain. Cells were grown at 37 °C up to an A600 nm of 0.8, and then were induced with 0.5 mM IPTG at 25 °C for 8 h. For the production of uniformly ^15N-labeled samples, cells were grown in minimal medium using ^15NH4CL (0.5 g/L) as the sole nitrogen source. ^15N-NH4Cl was purchased from Cambridge Isotope Laboratories, Inc. The His-tagged proteins were purified by a chelated-nickel column followed by Thrombin protease treatment to remove the tag as previous described. The GST and GST fusion proteins were purified using immobilized glutathione. All proteins were further purified on a Superdex75 gel-filtration column (GE Healthcare, Piscataway, NJ, USA). The purity of proteins was confirmed by SDS–PAGE. Protein concentrations were estimated with absorbance spectroscopy using the molar absorption coefficient. […]
The NMR sample of the apo Vav2-SH2 contained 0.1 mM of protein was dissolved in NMR buffer: 20 mM Tris/HCl with 100 mM NaCl, 3 mM DTT in 90% H2O, 10% D2O (pH 7.0). […] A series of ^1H–^15N HSQC spectra were recorded as the titrant gradually titrated into the protein solutions using the Bruker hsqcfpf3gpphwg pulse program. […] NMR data were processed with NMRPipe[67] and analyzed using Sparky3 (Goddard and Kneller, University of California, San Francisco). […]

full-length APPsw = test: GST pull-down of full-length APPsw from 20E2 cell lysate; format: binding; conditions: 20E2 cell lysate 0.2 mg, 1 mg GST fusion on glutathione-agarose, 2 h; western blot (C20)
Protocol: The recombinant plasmids harboring His-tagged or GST-tagged Vav2-SH2 were transformed into Escherichia coli BL21 (DE3) (Novagen) strain. Cells were grown at 37 °C up to an A600 nm of 0.8, and then were induced with 0.5 mM IPTG at 25 °C for 8 h. For the production of uniformly ^15N-labeled samples, cells were grown in minimal medium using ^15NH4CL (0.5 g/L) as the sole nitrogen source. ^15N-NH4Cl was purchased from Cambridge Isotope Laboratories, Inc. The His-tagged proteins were purified by a chelated-nickel column followed by Thrombin protease treatment to remove the tag as previous described. The GST and GST fusion proteins were purified using immobilized glutathione. All proteins were further purified on a Superdex75 gel-filtration column (GE Healthcare, Piscataway, NJ, USA). The purity of proteins was confirmed by SDS–PAGE. Protein concentrations were estimated with absorbance spectroscopy using the molar absorption coefficient.
One hundred microliter glutathione-agarose beads were incubated with 1 mg purified GST or indicated GST-SH2 fusions and the mutant GST-SH2^R680A for 2 h at 4 °C in GST binding buffer (20 mM Tris/HCl, pH 7.4, 150 mM NaCl and 1 mM EDTA, 0.5% TritonX-100). […] After washing 4 times with GST binding buffer, beads were boiled in SDS sample buffer, run on 12% SDS–PAGE gel and analyzed by Coomassie or immunoblotting.

Kd (Vav2-SH2 domain [1]; pH 7.4, 0.75 mM peptide titrated into 30 μM Vav2-SH2, single-site binding model): 860 nM
Molecule: C[C@@H](O)[C@H](NC(=O)[C@@H]1CCCN1C(=O)[C@H](CC(N)=O)NC(=O)[C@H](CCC(=O)O)NC(=O)[C@H](Cc1ccc(OP(=O)(O)O)cc1)NC(=O)CNC(=O)[C@H](CC(N)=O)NC(=O)[C@@H](N)CCC(N)=O)C(=O)O [APP-pY682] (H-QNG[pY]ENPT-OH)

Molecule: Grb2 SH2 (from UniProt P62993)
Kd [2]: 290 nM

binding in ITC (result in words) (Vav2-SH2 domain [1]; pH 7.4, 0.75 mM peptide titrated into 30 μM Vav2-SH2): no binding
Molecule: QNGYENPT [APP-Y682]
chemical shift perturbations (CSPs) in 1H-15N HSQC of Vav2-SH2 (Vav2-SH2 domain [3]): did not induce any chemical shift perturbations

B1: GST-Vav2-SH2: wild-type GST-Vav2-SH2 protein (protein)
chain: SRPPSREIDYTAYPWFAGNMERQQTDNLLKSHASGTYLIRERPAEAERFAISIKFNDEVKHIKVVEKDNWIHITEAKKFDSLLELVEYYQCHSLKESFKQLDTTLKYPYKSRE
modifications: left off: GST, end not stated, kept
notes: wild-type GST-Vav2-SH2 protein
binding to full-length APPsw in GST pull-down (result in words) (full-length APPsw): bound selectively to full-length APPsw

B2: R680A mutant: R680A mutant of GST-Vav2-SH2 protein (negative control) (protein)
chain: SRPPSREIDYTAYPWFAGNMEAQQTDNLLKSHASGTYLIRERPAEAERFAISIKFNDEVKHIKVVEKDNWIHITEAKKFDSLLELVEYYQCHSLKESFKQLDTTLKYPYKSRE
modifications: left off: GST, end not stated, kept
binding to full-length APPsw in GST pull-down (result in words) (full-length APPsw): not GST alone or the R680A mutant bound selectively to full-length APPsw
